Measurements reported in ChEMBL document CHEMBL3507680, “University of Dundee, Gates Library screen for HepG2 cell viability”.

Assay: Human HepG2 cell viability assay in 384 well format
Assay type: toxicity, cell-based
Design: dose 125 nL, time 70.5 hour; cytotoxicity at 70.5 h: concentration not given beside the values
Conditions: HepG2 cells, read-out: Inhibition

Row | Structure (SMILES) | cytotoxicity at 70.5 h
1 | CC(=O)c1ccc(N2CCC3(CCC(=O)N(CCCO)C3)CC2)nc1 | 3.25%
2 | CN1CCN(c2cc(Sc3cccs3)nc(N)n2)CC1CCO (stereo not given) | -7.97%
3 | Cc1c[nH]c(CN2CC[C@@]3(O)CCN(C(=O)C4CCCC4)C[C@H]3C2)n1 | 19.2%
4 | CCC(NC1Cc2ccccc2C1)c1ccc(S(C)(=O)=O)cc1 (stereo not given) | -14.8%
5 | Cc1csc2c(=O)n(CCSc3cnn[nH]3)cnc12 | -7.83%
6 | CCn1cnc(NC(=O)N2CCCC(c3ccccc3)CC2)n1 (stereo not given) | -6.51%
7 | COCCNC(=O)[C@H]1C[C@@](CC(C)C)(C(=O)O)N(C)[C@H]1c1cccnc1 | 1.74%
8 | Cc1cccc2nc(C(=O)N3CCC4(CCC(=O)N(C)C4)CC3)c(F)n12 | -11.3%
9 | Cn1cc(CN(C(=O)c2ccc3ncsc3c2)C2CC2)cn1 | 19.6%
10 | COc1ccccc1OCc1cc(C(=O)N2CCC(NC(C)=O)C2)n[nH]1 (stereo not given) | 2.49%
11 | Cc1noc(C)c1C(=O)N1CCC2(CC1)c1nc[nH]c1CCN2C | -3.9%
12 | CC(C(=O)N1CCN(CCOc2ccccc2)CC1)n1cc(Cl)cn1 (stereo not given) | -9.22%
13 | CCc1cc(N(C)Cc2ccno2)n2nc(C)c(C)c2n1 | -2.75%
14 | O=C(O)C1(Oc2cccc(F)c2)CCN(c2ccncc2)CC1 | -0.0629%
15 | CC(C)c1cc(N2CCC(C(C)N3CCCC3)CC2)n2nccc2n1 (stereo not given) | -3.16%
16 | COCCCC1(CO)CCCN(Cc2cccc(C#N)c2)C1 (stereo not given) | -5.8%
17 | CC(C)(C)CNCC1(O)CCCN(Cc2ccccc2F)C1=O (stereo not given) | 0.716%
18 | NC(=O)C1CN(c2ncnc3c2Cc2ccccc2OC3)CCO1 (stereo not given) | -3.79%
19 | CN(Cc1ccncn1)c1nccc(CCC(F)(F)F)n1 | 23%
20 | Fc1cc(Cl)cnc1N1CCCC(c2nccn2Cc2ccccn2)C1 (stereo not given) | 10.1%
21 | CSCCc1n[nH]c2c1CN(S(=O)(=O)c1c(C)nn(C)c1C)CC2 | 17.2%
22 | COc1ccnc(CN2CCCC(CCc3ccccc3)C2)c1OC (stereo not given) | 3.51%
23 | Cc1ccc2cc(C3(O)CCN(C)CC3)ccc2n1 | -0.603%
24 | O=C(c1ccncc1)N1C[C@@H]2CC[C@H](C1)N(S(=O)(=O)c1cccnc1)C2 | -5.9%
25 | CCC(C(=O)N(C)Cc1cc(COC)[nH]n1)n1cccn1 (stereo not given) | -11.5%
26 | CCNC(=O)C1CN(Cc2c(-c3cc(C)on3)nn(C)c2Cl)CCO1 (stereo not given) | 2.76%
27 | O=C(c1cccc(Oc2ccccc2)c1)N1CCCC(O)(CO)CC1 (stereo not given) | -8.12%
28 | Cc1ccc(CN2CCOCS2(=O)=O)cc1F | -9.79%

Row | Structure (SMILES) | cytotoxicity at 70.5 h
29 | CCn1nc(C)c(CCNC(=O)C2CCCN(C(N)=O)C2)c1C (stereo not given) | 19.9%
30 | COc1ccc(C(C(=O)O)N(C)Cc2c(C)nn(C)c2C)c(C)c1 (stereo not given) | -10%
31 | CCN(Cc1noc(C2CC2)n1)C(=O)c1onc2ccccc12 | -8.65%
32 | O=C(c1n[nH]cc1Cl)N1CCOC(Cc2cccc(C(F)(F)F)c2)C1 (stereo not given) | -4.63%
33 | CC(C)c1cc(N2CCSCC2)n2nccc2n1 | 19.1%
34 | COc1ccc(CN2CCN(C(=O)N(C)C)[C@@H]3CS(=O)(=O)C[C@@H]32)cc1F | 4.21%
35 | CCN1CCCC(c2c(-c3ccccc3)ncn2Cc2cccnc2)C1 (stereo not given) | -9.92%
36 | COCCN1CCCC(O)(CN2CCCN(c3ncccn3)CC2)C1=O (stereo not given) | 2.84%
37 | CN(C)CC1(O)CCN(C(=O)c2ccc(-n3cccn3)cc2Cl)C1 (stereo not given) | 5.18%
38 | O=c1cc(CN2C[C@H]3CC[C@@H]2CN(Cc2ccccc2)C3)[nH]c(=O)[nH]1 | 2.22%
39 | O=C(NC1CCOC1)c1cccc(S(=O)(=O)NCCCc2ncc[nH]2)c1 (stereo not given) | -13.4%
40 | COc1coc(CN2CCCC(CCc3ccc(F)c(F)c3)C2)cc1=O (stereo not given) | 15.5%
41 | Cc1cc(C(F)(F)F)cc(N2CCC3(CCC(=O)N(CCO)C3)CC2)n1 | -4.65%
42 | Cc1ccc(-c2nnc(CN3CC[C@H](CO)[C@@H](O)C3)o2)n1C | -2.96%
43 | CC(Cc1cnccn1)NC(=O)COc1ccc(F)cc1F (stereo not given) | 3.61%
44 | CCc1cnc(N)nc1NCCn1cc(Cl)cn1 | -6.52%
45 | COc1cccc(OC2CN(C(=O)Cn3nc4ccccc4n3)C2)c1 | -5.28%
46 | CN(CCC1CCOCC1)[C@@H]1c2ccccc2C2(CCNCC2)[C@H]1O | -4.06%
47 | NC(=O)C1CCN(CC(=O)NCCn2cc(Cl)cn2)CC1 | 13.2%
48 | O=C(c1ccccn1)N1C[C@@H]2CC[C@H](C1)N(C(=O)CCC1CCCC1)C2 | -1.69%
49 | COc1ccc(OC)c(CNC2CCCc3nc(N(C)C)ncc32)c1 (stereo not given) | -7.31%
50 | Nc1cc(C(=O)N2CCC3(CC2)Nc2ccccc2NC3=O)ccn1 | 19.6%
51 | CCOc1ncccc1Cn1cc(-c2ccc(CO)o2)nn1 | -15.3%
52 | COc1ccc(C(=O)NCC2CCCN(C3CCOCC3)C2)c(O)c1 (stereo not given) | 23.3%
53 | COc1cccc(CCC2CCCN(Cc3ncc[nH]3)C2)c1 (stereo not given) | 29.4%
54 | Cc1[nH]c2c(F)cccc2c1CC(=O)N1CCC(NS(C)(=O)=O)CC1 | -7.49%
55 | CN1CC[C@H]2CN(C(=O)c3ccc4sc5c(c4c3)CCNC5=O)C[C@H]21 | -1.19%
